Laboratory results as given in ChEMBL document CHEMBL1159226, “Xestobergsterol C, a new pentacyclic steroid from the Okinawan marine sponge Ircinia Sp. and absolute stereochemistry of xestobergsterol A” (J Nat Prod, 1995).
≈ marks a conversion by molar mass, not a printed value.

System: L1210
Experiment: Cytotoxicity against mouse L1210 cells
Type: functional, cell-based

CC(C)C[C@@]1(O)C[C@@H](C)[C@H]2[C@@H]1C(=O)[C@H]1[C@@H]3[C@@H](O)[C@H](O)[C@H]4C[C@H](O)CC[C@]4(C)[C@H]3CC[C@]21C and CC(C)C[C@@]1(O)C[C@@H](C)[C@H]2[C@@H]1C(=O)[C@H]1[C@@H]3[C@@H](O)[C@H](O)[C@H]4C[C@H](O)[C@@H](O)C[C@]4(C)[C@H]3CC[C@]21C are within 1.5-fold of each other in IC50: 4 µg/mL (≈ 8.92 µM) for the first, 4.1 µg/mL (≈ 8.82 µM) for the second.

For CC(C)C[C@@]1(O)C[C@@H](C)[C@H]2[C@@H]1C(=O)[C@H]1[C@@H]3[C@@H](O)[C@H](O)[C@H]4C[C@H](O)[C@@H](O)[C@@H](O)[C@]4(C)[C@H]3CC[C@]21C, the IC50 was greater than 10 µg/mL.
